# Measurements from patent US10858364B2, “Imidazopyrazine inhibitors of Bruton's tyrosine kinase” (Acerta Pharma B.V., priority 2016, dated 2020).
# Legend:
# ERBB4 = ERBB4 (Homo sapiens (Human), UniProt Q15303); assay: ERBB4 Z'-LYTE kinase assay; assay type: biochemical; settings: 1 h pre-incubation, Km ATP
# Description: (§1) BMX, TXK, EGFR, ERBB2, ERBB4, JAK3, BLK kinase activity was measured using the Z′-LYTE assay at Thermo Fisher. A 10-point dose response (final concentration in assay ranged from 10 μM to 0.5 nM in 3-fold dilution per dilution step) was generated with 1 h incubation of the test compound with the kinase prior to initiation of the kinase reaction by the addition of ATP. ATP concentration in the assay was Km ATP for the different kinases. IC50 values are determined by curve fitting of the experimental results at Thermo Fisher.
# ERBB2 = ERBB2 (Homo sapiens (Human), UniProt P04626); assay: DiscoveRx Kd dose response, ERBB2; assay type: binding
# Description: (§2) Kinase profiling was performed with M27 was done at DiscoveRx at a single dose of 1 μM on all available kinases (KINOMEscan). The overall kinase selectivity score is in Table 6. […] Kinases inhibited >65% at 1 μM for M27 were followed up with a dose response at DiscoveRx. The M27 had IC50 values <1 μM for almost the same set of kinases with exception of TXK, but with additional inhibition of BRK (PTK6).
# CYP1A2 = CYP1A2 (Homo sapiens (Human), UniProt P05177)
# CYP2C19 = CYP2C19 (Homo sapiens (Human), UniProt P33261); assay: CYP inhibition, CYP2C19; assay type: in vitro ADME
# BTK [1] = target: T1, BTK (Homo sapiens (Human), UniProt Q06187); assay: BTK target occupancy ELISA in Ramos B cells; assay type: cell-based; settings: 2h incubation
# Description: Ramos B cells (ATCC, cat no. CRL-1923) were plated in 24-wells culture plates at 2×10^6 cells per well in a total volume of 900 μL DMEMF12+10% FBS+2 mM L-Glutamine+Pen/Strep. Allow the cells to rest 1 h at 5-7% CO2 and 37° C. Serial dilutions log 10 from 10 mM to 316 nM of test compounds are made in 100% DMSO, followed by a 100-fold dilution into culture medium. For each well, 100 μL was then transferred to well plate containing 900 μL of Ramos B cells. Final compound concentration range in the assay varied from 10 μM to 0.316 nM, with a final DMSO concentration of 0.1% and incubated at 5-7% CO2 and 37° C. for 2h. Afterwards, cells are collected for the measurement of the BTK target occupancy using the BTK target occupancy ELISA as outlined below. The percent of drug-bound BTK in Ramos B cell samples was determined by an ELISA based method as follows: OptiPlate 96-well plates (Perkin Elmer) were coated with 125 ng/well anti-BTK Ab (BD Biosciences) and blocked with BSA (Sigma-Aldrich). […] One hundred L/well of SuperSignal ELISA Femto Substrate (ThermoFisher Scientific) was added and then chemiluminescence was measured after 1 minute (EnVision® plate reader; PerkinElmer). The percent of BTK occupancy for each sample was calculated relative to the vehicle control. […] Ramos cells were incubated with a dose range of M27 and BTK target occupancy was determined by ELISA.
# Target sequence in this assay (Q06187 whole entry): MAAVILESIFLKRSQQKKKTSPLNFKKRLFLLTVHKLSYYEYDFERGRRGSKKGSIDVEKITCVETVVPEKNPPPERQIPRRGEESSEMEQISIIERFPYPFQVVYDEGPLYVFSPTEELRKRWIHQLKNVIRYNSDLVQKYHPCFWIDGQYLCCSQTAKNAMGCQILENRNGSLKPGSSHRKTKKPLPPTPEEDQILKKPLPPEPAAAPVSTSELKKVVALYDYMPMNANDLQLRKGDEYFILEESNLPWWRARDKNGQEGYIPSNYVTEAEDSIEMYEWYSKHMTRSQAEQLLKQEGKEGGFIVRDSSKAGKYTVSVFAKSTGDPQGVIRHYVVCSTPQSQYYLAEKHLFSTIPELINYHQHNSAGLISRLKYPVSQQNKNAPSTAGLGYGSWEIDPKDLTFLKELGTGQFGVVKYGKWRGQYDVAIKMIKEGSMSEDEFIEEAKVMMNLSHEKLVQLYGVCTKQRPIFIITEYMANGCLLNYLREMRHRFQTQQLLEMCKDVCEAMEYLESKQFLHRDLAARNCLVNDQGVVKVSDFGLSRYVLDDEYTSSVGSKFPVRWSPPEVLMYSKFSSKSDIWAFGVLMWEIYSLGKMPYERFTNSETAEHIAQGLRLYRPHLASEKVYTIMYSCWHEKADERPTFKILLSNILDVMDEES
# EGFR = EGFR (Homo sapiens (Human), UniProt P00533); assay: EGFR Z'-LYTE kinase assay; assay type: biochemical; settings: 1 h pre-incubation, Km ATP
# Description: as §1
# BTK [2] = target: T1, BTK; assay: DiscoveRx Kd dose response, BTK; assay type: binding
# Description: as §2
# Target sequence in this assay (Q06187 whole entry): as above
# BTK [3] = target: T1, BTK; assay: BTK inhibition in a biochemical assay, relative to acalabrutinib
# Target sequence in this assay (Q06187 whole entry, species assumed): as the sequence (Q06187 whole entry) above
# Sequence of ERBB2 (P04626 23-1255): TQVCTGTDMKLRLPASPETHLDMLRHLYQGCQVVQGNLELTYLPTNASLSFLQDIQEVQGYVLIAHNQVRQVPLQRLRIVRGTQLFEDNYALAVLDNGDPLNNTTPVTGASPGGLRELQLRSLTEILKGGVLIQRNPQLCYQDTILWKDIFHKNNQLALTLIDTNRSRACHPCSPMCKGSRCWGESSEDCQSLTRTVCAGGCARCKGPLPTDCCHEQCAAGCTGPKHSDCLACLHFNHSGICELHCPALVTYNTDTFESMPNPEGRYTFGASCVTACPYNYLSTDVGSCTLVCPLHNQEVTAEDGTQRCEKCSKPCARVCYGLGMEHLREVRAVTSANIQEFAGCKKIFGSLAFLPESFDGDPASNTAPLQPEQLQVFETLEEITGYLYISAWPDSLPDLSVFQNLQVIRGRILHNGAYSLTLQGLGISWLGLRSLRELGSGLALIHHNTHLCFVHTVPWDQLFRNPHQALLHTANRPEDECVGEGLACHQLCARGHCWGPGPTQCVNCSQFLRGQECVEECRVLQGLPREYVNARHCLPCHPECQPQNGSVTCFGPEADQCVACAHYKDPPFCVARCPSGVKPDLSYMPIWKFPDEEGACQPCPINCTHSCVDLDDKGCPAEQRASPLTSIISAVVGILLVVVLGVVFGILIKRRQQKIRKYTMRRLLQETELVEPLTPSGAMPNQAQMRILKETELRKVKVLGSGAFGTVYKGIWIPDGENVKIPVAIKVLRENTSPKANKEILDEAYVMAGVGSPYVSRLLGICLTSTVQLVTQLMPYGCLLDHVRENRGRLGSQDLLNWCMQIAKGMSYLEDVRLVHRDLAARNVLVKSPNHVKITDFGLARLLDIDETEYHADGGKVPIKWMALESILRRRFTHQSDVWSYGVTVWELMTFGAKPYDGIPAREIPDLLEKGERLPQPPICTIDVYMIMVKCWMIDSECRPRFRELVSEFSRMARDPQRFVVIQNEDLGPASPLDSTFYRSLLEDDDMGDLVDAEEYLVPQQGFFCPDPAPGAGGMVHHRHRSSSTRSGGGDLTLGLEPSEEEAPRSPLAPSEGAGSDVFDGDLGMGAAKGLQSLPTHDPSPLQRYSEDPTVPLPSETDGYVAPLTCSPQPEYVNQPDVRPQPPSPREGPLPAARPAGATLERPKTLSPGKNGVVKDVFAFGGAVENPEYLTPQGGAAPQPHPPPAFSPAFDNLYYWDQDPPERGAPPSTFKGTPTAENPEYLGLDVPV
# Sequence of CYP1A2 (P05177 whole entry): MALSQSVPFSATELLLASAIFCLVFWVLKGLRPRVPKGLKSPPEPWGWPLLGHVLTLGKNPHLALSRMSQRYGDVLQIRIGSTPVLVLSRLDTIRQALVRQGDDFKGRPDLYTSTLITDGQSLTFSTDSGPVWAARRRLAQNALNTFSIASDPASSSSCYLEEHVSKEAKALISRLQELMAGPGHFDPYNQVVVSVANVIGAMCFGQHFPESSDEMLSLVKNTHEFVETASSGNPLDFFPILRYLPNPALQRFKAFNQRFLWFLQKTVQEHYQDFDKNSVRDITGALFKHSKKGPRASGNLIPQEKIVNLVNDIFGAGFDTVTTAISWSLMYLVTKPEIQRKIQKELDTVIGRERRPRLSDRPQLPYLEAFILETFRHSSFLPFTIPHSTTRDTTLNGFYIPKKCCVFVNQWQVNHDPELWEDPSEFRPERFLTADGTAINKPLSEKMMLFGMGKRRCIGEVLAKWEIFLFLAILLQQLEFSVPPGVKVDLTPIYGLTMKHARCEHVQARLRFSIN
# Sequence of ERBB4 (Q15303 26-1308): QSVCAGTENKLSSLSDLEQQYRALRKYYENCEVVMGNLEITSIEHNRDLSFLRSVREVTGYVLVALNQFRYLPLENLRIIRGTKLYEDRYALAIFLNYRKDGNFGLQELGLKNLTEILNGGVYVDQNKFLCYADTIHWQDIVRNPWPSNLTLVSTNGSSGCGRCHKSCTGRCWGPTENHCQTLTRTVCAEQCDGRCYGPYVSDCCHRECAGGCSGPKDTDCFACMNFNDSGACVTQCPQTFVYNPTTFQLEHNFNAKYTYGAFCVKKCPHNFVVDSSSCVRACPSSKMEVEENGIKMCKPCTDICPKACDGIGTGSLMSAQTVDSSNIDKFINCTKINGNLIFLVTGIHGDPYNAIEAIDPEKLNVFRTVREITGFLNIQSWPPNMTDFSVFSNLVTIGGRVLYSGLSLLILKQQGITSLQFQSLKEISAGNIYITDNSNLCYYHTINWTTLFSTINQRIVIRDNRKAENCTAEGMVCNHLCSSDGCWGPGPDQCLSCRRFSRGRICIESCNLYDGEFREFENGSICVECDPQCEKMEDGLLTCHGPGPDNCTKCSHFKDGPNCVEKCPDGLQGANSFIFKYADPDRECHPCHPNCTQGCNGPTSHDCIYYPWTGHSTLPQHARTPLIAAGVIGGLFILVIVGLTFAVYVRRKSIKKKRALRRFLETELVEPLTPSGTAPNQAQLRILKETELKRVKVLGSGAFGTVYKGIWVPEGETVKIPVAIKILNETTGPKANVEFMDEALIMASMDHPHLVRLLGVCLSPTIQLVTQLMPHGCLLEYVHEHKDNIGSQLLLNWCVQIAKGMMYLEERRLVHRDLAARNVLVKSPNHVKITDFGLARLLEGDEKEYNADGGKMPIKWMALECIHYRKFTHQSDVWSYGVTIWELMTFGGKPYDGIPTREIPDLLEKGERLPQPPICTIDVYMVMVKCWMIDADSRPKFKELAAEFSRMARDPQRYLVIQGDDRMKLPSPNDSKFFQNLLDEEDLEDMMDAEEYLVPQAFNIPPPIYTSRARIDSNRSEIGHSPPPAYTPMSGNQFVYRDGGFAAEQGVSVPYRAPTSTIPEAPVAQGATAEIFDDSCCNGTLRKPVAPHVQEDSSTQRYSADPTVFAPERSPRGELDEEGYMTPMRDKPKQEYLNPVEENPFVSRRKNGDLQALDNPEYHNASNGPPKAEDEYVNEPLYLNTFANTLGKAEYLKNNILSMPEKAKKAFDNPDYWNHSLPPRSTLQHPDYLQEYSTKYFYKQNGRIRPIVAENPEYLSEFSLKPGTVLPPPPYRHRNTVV
# Sequence of EGFR (P00533 25-1210): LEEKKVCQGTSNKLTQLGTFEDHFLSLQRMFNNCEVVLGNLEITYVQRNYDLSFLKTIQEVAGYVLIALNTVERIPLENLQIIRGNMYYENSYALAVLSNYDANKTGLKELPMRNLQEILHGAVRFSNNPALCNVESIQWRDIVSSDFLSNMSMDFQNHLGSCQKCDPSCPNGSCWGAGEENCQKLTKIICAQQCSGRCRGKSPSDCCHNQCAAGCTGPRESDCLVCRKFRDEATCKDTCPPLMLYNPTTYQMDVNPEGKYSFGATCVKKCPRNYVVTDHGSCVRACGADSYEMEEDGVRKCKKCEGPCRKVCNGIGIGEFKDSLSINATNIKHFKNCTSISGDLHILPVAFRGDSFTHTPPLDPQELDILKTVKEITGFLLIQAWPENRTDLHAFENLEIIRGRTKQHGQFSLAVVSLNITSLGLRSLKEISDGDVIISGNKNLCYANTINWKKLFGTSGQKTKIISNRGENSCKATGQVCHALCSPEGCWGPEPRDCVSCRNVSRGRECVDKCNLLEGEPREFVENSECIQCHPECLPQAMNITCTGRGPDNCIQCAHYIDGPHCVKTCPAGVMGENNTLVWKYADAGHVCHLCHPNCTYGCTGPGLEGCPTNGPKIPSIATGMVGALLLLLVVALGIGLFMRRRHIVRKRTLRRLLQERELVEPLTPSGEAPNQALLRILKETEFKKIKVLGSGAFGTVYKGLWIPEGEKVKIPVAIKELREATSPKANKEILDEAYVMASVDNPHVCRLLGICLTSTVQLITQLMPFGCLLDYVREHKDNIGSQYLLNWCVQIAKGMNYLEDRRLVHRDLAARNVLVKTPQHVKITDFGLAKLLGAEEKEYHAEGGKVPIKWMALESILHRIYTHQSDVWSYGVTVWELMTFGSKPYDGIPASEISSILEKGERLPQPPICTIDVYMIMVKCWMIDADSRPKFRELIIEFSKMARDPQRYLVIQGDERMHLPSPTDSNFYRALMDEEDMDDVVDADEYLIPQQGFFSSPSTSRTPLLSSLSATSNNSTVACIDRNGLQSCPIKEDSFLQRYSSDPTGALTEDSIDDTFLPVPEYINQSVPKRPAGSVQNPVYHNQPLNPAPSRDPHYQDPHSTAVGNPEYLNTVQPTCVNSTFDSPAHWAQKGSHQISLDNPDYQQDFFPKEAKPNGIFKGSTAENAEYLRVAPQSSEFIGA
smiles,measurement,setting,value
"CC#CC(=O)NCCCC(=O)c1nc(-c2ccc(C(=O)Nc3ccccn3)cc2)c2c(N)nccn12 [Formula (I), 4-(8-amino-3-(4-(but-2-ynamido)butanoyl)imidazo[1,5-a]pyrazin-1-yl)-N-(pyridin-2-yl)benzamide]",IC50,ERBB4,343 ± 23 nM
same,Kd,ERBB2,120 nM
same,CYP1A2 inhibition,CYP1A2,does not inhibit
same,CYP2C19 inhibition,CYP2C19,weak inhibitor
same,IC50,BTK [1],39 nM
same,IC50,EGFR,> 10000 nM
same,Kd,BTK [2],29 nM
same,less potent than acalabrutinib with regard to BTK inhibition,BTK [3],approximately 50%
